Laboratory results published in patent US7858635B2 (priority 2005, dated 2010).
Read-outs that look alike come from different tables or passages of the source.

Assays:
M4 muscarinic receptor = molecular target: T1, M4 muscarinic receptor (Homo sapiens, UniProt P08173); experiment: Functional mobilization of intracellular calcium (FLIPR, Fluo-3), M4-CHO cells; assay type: cell-based; conditions: for Emax / M4 Efficacy: 100% efficacy is the maximum response obtained with the Carbachol control; for Emax: read-out: M4 Efficacy
T1 construct: expressed in transfected cells; host or cells: CHO cells (M4-CHO, under puromycin, zeocin and blasticidin selection)
T1 sequence (P08173 1-479): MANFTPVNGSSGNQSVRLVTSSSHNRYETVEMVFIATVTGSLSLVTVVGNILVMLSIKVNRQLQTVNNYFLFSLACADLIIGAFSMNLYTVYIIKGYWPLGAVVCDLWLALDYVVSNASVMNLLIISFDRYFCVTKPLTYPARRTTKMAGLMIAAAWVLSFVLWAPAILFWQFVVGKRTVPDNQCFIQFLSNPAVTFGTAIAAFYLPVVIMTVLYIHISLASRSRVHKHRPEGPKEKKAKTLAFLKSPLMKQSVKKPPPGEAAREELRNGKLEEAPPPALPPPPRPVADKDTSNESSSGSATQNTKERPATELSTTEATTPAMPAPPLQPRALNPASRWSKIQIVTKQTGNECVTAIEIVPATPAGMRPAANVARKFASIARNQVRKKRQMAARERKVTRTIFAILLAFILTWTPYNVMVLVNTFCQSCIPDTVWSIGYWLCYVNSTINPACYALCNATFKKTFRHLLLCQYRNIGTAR
Procedure, shortened: (§1)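 CHO lines stably carrying the muscarinic subtype, dye-loaded with Fluo-3 at 37° C for 60-90 min, receive test compound in 0.5% DMSO. Agonist effects are read directly; antagonist effects against carbachol at EC80 after 15 min pre-incubation.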

M1 muscarinic receptor = molecular target: T2, M1 muscarinic receptor (Homo sapiens, UniProt P11229); experiment: Functional mobilization of intracellular calcium (FLIPR, Fluo-3), M1-CHO cells; assay type: cell-based; conditions: for Emax / M1 Efficacy: 100% efficacy is the maximum response obtained with the Carbachol control; for Emax: read-out: M1 Efficacy
T2 construct: expressed in transfected cells; host or cells: CHO cells (M1-CHO, under zeocin and G418 selection)
T2 sequence (P11229 1-460): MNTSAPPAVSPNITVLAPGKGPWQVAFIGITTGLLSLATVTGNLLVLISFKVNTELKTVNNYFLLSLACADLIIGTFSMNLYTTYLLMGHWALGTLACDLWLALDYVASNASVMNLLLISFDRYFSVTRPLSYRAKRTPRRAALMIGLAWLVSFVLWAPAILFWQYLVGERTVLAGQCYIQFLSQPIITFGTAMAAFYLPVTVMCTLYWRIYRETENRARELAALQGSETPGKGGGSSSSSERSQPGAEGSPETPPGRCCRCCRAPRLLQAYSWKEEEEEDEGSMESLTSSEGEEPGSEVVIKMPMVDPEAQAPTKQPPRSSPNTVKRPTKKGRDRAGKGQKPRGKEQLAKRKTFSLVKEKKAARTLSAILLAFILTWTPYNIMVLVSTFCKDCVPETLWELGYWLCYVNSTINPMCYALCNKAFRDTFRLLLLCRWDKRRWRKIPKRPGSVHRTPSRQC
Procedure, shortened: as §1

[1] = compound nos. 1-454, M4-CHO cells, calcium mobilization
[2] = compound nos. 1-454, M1-CHO cells, calcium mobilization

SMILES: Cc1ncc(N2CCC(N3CCC4(CC3)CN(C(=O)N(C)C)c3ccccc34)CC2)nc1C [compound 487]
- Emax (M4 muscarinic receptor; compound nos. 455-509): 25 to 100%
- M4 Activity (M4 muscarinic receptor; compounds 455-509): ++ (activity was measured to be between 2.0 μM and 5.0 μM)
- Emax (M1 muscarinic receptor; compound nos. 455-509): > 100%
- M1 Activity (M1 muscarinic receptor; compounds 455-509): +++ (activity was measured to be less than or equal to 2.0 μM)

SMILES: CC(=O)NC1CC2(CCN(C[C@@H]3C[C@H]4C=C[C@H]3C4)CC2)c2ccccc21 (stereo partly drawn) [compound 408]
- M4 Activity (M4 muscarinic receptor; compound nos. 1-454): +++ (activity was measured to be less than or equal to 0.1 μM)
- Emax (M4 muscarinic receptor; compound nos. 1-454): 55 to 70%
- M1 Activity (M1 muscarinic receptor; compound nos. 1-454): +++ (activity was measured to be less than or equal to 0.7 μM)
- Emax (M1 muscarinic receptor; compound nos. 1-454): 65 to 85%

SMILES: CC(=O)N1CC2(CCN(C3CC4CCC(C3)N4C(=O)OC3CCC3)CC2)c2cc(F)ccc21 (stereo not drawn) [compound 174]
- Emax (M4 muscarinic receptor; compound nos. 1-454): 55 to 70%
- M4 Activity (M4 muscarinic receptor; [1]): + (activity was measured to be greater than or equal to 4.0 μM)
- Emax (M1 muscarinic receptor; compound nos. 1-454): > 85%
- M1 Activity (M1 muscarinic receptor; [2]): +++ (activity was measured to be less than or equal to 0.7 μM)

SMILES: CC=CCOC(=O)N1C2CCC1CC(N1CCC3(CC1)CN(C(=O)N(C)C)c1ccc(F)cc13)C2 (stereo not drawn) [compound 200]
- Emax (M4 muscarinic receptor; compound nos. 1-454): < 55%
- M4 Activity (M4 muscarinic receptor; [1]): + (activity was measured to be greater than or equal to 4.0 μM)
- Emax (M1 muscarinic receptor; compound nos. 1-454): 65 to 85%
- M1 Activity (M1 muscarinic receptor; [2]): ++ (activity was measured to be between 0.7 μM and 3.0 μM)

SMILES: CC(=O)N1CC2(CCN(CC3CCN(C(=O)O[C@@H]4CCOC4)CC3)CC2)c2cc(F)ccc21 [compound 14]
- Emax (M4 muscarinic receptor; compound nos. 1-454): > 70%
- M4 Activity (M4 muscarinic receptor; [1]): +++ (activity was measured to be less than or equal to 0.1 μM)
- Emax (M1 muscarinic receptor; compound nos. 1-454): 65 to 85%
- M1 Activity (M1 muscarinic receptor; [2]): +++ (activity was measured to be less than or equal to 0.7 μM)

SMILES: CC(=O)N(C)[C@H]1CC2(CCN(C3CCN(c4nc(C)ns4)CC3)CC2)c2ccccc21 [compound 479]
- Emax (M4 muscarinic receptor; compound nos. 455-509): 25 to 100%
- M4 Activity (M4 muscarinic receptor; compounds 455-509): ++ (activity was measured to be between 2.0 μM and 5.0 μM)
- Emax (M1 muscarinic receptor; compound nos. 455-509): > 100%
- M1 Activity (M1 muscarinic receptor; compounds 455-509): +++ (activity was measured to be less than or equal to 2.0 μM)

SMILES: Cc1ccc2c(c1)C1(CCN(C3CC4CCC3C4)CC1)CN2 (stereo not drawn) [compound 350]
- Emax (M4 muscarinic receptor; compound nos. 1-454): > 70%
- M4 Activity (M4 muscarinic receptor; [1]): +++ (activity was measured to be less than or equal to 0.1 μM)
- Emax (M1 muscarinic receptor; compound nos. 1-454): > 85%
- M1 Activity (M1 muscarinic receptor; [2]): +++ (activity was measured to be less than or equal to 0.7 μM)

SMILES: CCc1cncc(N2CCC(N3CCC4(CC3)CN(C(C)=O)c3ccccc34)CC2)n1 [compound 485]
- Emax (M4 muscarinic receptor; compound nos. 455-509): 25 to 100%
- M4 Activity (M4 muscarinic receptor; compounds 455-509): ++ (activity was measured to be between 2.0 μM and 5.0 μM)
- Emax (M1 muscarinic receptor; compound nos. 455-509): > 100%
- M1 Activity (M1 muscarinic receptor; compounds 455-509): +++ (activity was measured to be less than or equal to 2.0 μM)

SMILES: CC(=O)N1CC2(CCN(CC3CCN(C(=O)O[C@@H]4CCOC4)CC3)CC2)c2cc(F)ccc21 [compound 82]
- M4 Efficacy (M4 muscarinic receptor; compound nos. 1-454): ++ (efficacy was calculated to be between 70% and 55%)
- M4 Activity (M4 muscarinic receptor; [1]): ++ (activity was measured to be between 0.1 μM and 4.0 μM)
- M1 Efficacy (M1 muscarinic receptor; compound nos. 1-454): ++ (efficacy was calculated to be between 85% and 65%)
- M1 Activity (M1 muscarinic receptor; [2]): +++ (activity was measured to be less than or equal to 0.7 μM)

SMILES: CCOC(=O)N1CCC(N2CCC3(CC2)CN(C(=O)O[C@H]2CCOC2)c2ccc(F)cc23)CC1 [compound 49]
- M4 Efficacy (M4 muscarinic receptor; compound nos. 1-454): ++ (efficacy was calculated to be between 70% and 55%)
- M4 Activity (M4 muscarinic receptor; [1]): +++ (activity was measured to be less than or equal to 0.1 μM)
- M1 Efficacy (M1 muscarinic receptor; compound nos. 1-454): +++ (efficacy was calculated to be 85% or more)
- M1 Activity (M1 muscarinic receptor; [2]): +++ (activity was measured to be less than or equal to 0.7 μM)

SMILES: COCCOC(=O)N1CCC(CN2CCC3(CC2)CN(C(C)=O)c2ccc(C)cc23)CC1 [compound 419]
- M4 Activity (M4 muscarinic receptor; compound nos. 1-454): + (activity was measured to be greater than or equal to 4.0 μM)
- Emax (M4 muscarinic receptor; compound nos. 1-454): < 55%
- M1 Activity (M1 muscarinic receptor; compound nos. 1-454): + (activity was measured to be greater than or equal to 3.0 μM)
- Emax (M1 muscarinic receptor; compound nos. 1-454): < 65%

SMILES: CCNC(=O)N1CC2(CCN(C3CC4CCC3C4)CC2)c2cc(C)ccc21 (stereo not drawn) [compound 400]
- M4 Activity (M4 muscarinic receptor; compound nos. 1-454): + (activity was measured to be greater than or equal to 4.0 μM)
- Emax (M4 muscarinic receptor; compound nos. 1-454): < 55%
- M1 Activity (M1 muscarinic receptor; compound nos. 1-454): + (activity was measured to be greater than or equal to 3.0 μM)
- Emax (M1 muscarinic receptor; compound nos. 1-454): < 65%

SMILES: CCc1nsc(N2CCC(N3CCC4(CC3)C[C@H](N(C)C(C)=O)c3ccccc34)CC2)n1 [compound 484]
- Emax (M4 muscarinic receptor; compound nos. 455-509): 25 to 100%
- M4 Activity (M4 muscarinic receptor; compounds 455-509): ++ (activity was measured to be between 2.0 μM and 5.0 μM)
- Emax (M1 muscarinic receptor; compound nos. 455-509): > 100%
- M1 Activity (M1 muscarinic receptor; compounds 455-509): +++ (activity was measured to be less than or equal to 2.0 μM)

SMILES: Fc1ccc2c(c1)C1(CCN(C3CCOCC3)CC1)CN2 [compound 299]
- Emax (M4 muscarinic receptor; compound nos. 1-454): 55 to 70%
- M4 Activity (M4 muscarinic receptor; [1]): + (activity was measured to be greater than or equal to 4.0 μM)
- Emax (M1 muscarinic receptor; compound nos. 1-454): 65 to 85%
- M1 Activity (M1 muscarinic receptor; [2]): + (activity was measured to be greater than or equal to 3.0 μM)

SMILES: CN(C)C(=O)N1CC2(CCN(C3CCN(c4ncns4)CC3)CC2)c2ccccc21 [compound 506]
- Emax (M4 muscarinic receptor; compound nos. 455-509): 25 to 100%
- M4 Activity (M4 muscarinic receptor; compounds 455-509): ++ (activity was measured to be between 2.0 μM and 5.0 μM)
- Emax (M1 muscarinic receptor; compound nos. 455-509): > 100%
- M1 Activity (M1 muscarinic receptor; compounds 455-509): ++ (activity was measured to be between 2.0 μM and 5.0 μM)

SMILES: CC(=O)N1CC2(CCN(C3CCN(c4cnc(C)c(C)n4)CC3)CC2)c2ccccc21 [compound 471]
- Emax (M4 muscarinic receptor; compound nos. 455-509): 25 to 100%
- M4 Activity (M4 muscarinic receptor; compounds 455-509): ++ (activity was measured to be between 2.0 μM and 5.0 μM)
- Emax (M1 muscarinic receptor; compound nos. 455-509): > 100%
- M1 Activity (M1 muscarinic receptor; compounds 455-509): ++ (activity was measured to be between 2.0 μM and 5.0 μM)

SMILES: CCOC(=O)N1C2CCC1CC(N1CCC3(CC1)CN(C(=O)c1ccc(F)cc1)c1ccc(F)cc13)C2 (stereo not drawn) [compound 222]
- Emax (M4 muscarinic receptor; compound nos. 1-454): < 55%
- M4 Activity (M4 muscarinic receptor; [1]): + (activity was measured to be greater than or equal to 4.0 μM)
- Emax (M1 muscarinic receptor; compound nos. 1-454): < 65%
- M1 Activity (M1 muscarinic receptor; [2]): + (activity was measured to be greater than or equal to 3.0 μM)

SMILES: COC(=O)N1C2CCC1CC(N1CCC3(CC1)COc1ccc(F)cc13)C2 (stereo not drawn) [compound 156]
- Emax (M4 muscarinic receptor; compound nos. 1-454): > 70%
- M4 Activity (M4 muscarinic receptor; [1]): +++ (activity was measured to be less than or equal to 0.1 μM)
- Emax (M1 muscarinic receptor; compound nos. 1-454): 65 to 85%
- M1 Activity (M1 muscarinic receptor; [2]): +++ (activity was measured to be less than or equal to 0.7 μM)

SMILES: CCOC(=O)N1C2CCC1CC(N1CCC3(CC1)C(=O)N(C)c1ccccc13)C2 (stereo not drawn) [compound 149]
- Emax (M4 muscarinic receptor; compound nos. 1-454): > 70%
- M4 Activity (M4 muscarinic receptor; [1]): + (activity was measured to be greater than or equal to 4.0 μM)
- Emax (M1 muscarinic receptor; compound nos. 1-454): > 85%
- M1 Activity (M1 muscarinic receptor; [2]): +++ (activity was measured to be less than or equal to 0.7 μM)

SMILES: CC(=O)N[C@H]1CC2(CCN(CC3CC4CCC3CC4)CC2)c2ccccc21 (stereo partly drawn) [compound 29]
- Emax (M4 muscarinic receptor; compound nos. 1-454): > 70%
- M4 Activity (M4 muscarinic receptor; [1]): +++ (activity was measured to be less than or equal to 0.1 μM)
- Emax (M1 muscarinic receptor; compound nos. 1-454): > 85%
- M1 Activity (M1 muscarinic receptor; [2]): +++ (activity was measured to be less than or equal to 0.7 μM)

SMILES: CN(C)C(=O)N1CC2(CCN(C3CCN(c4nccs4)CC3)CC2)c2cc(F)ccc21 [compound 447]
- M4 Activity (M4 muscarinic receptor; compound nos. 1-454): +++ (activity was measured to be less than or equal to 0.1 μM)
- Emax (M4 muscarinic receptor; compound nos. 1-454): 55 to 70%
- M1 Activity (M1 muscarinic receptor; compound nos. 1-454): +++ (activity was measured to be less than or equal to 0.7 μM)
- Emax (M1 muscarinic receptor; compound nos. 1-454): 65 to 85%
